From patent US10844077B2, “Thiazolyl-containing compounds for treating proliferative diseases” (Dana-Farber Cancer Institute, Inc., priority 2014, dated 2020)
Several values for one entry are separate records, joined by “and”; a condition that tells them apart may be missing. Equal entries are not always repeated. Where two headings read alike, the source gives them in different places.

How the values were obtained:
Type in all cases: cell-based
kinases in BCWM.1 cells [1] = molecular target: kinases in BCWM.1 cells (Homo sapiens, UniProt Q9Y2U5); details: MAP3K2; Lys1; 1 μM; GF
Description: (§1) The cells were harvested and lysed. […] Bound kinases were identified and quantitated by ACTIVX as described in Patricelli et al., Biochemistry, 2007, 46(2): 350-358. The compounds were tested in duplicates against duplicate or quadruplicate control samples.

kinases in BCWM.1 cells [2] = molecular target: kinases in BCWM.1 cells (Homo sapiens, UniProt P27448); details: MARK3; Lys1; 1 μM; GF
Description: as §1

kinases in BCWM.1 cells [3] = molecular target: kinases in BCWM.1 cells (Homo sapiens, UniProt Q86XP1); details: DGKH; ATP; 1 μM; GF
Description: as §1

kinases in BCWM.1 cells [4] = molecular target: kinases in BCWM.1 cells (Homo sapiens, UniProt P49840); details: GSK3A; Lys2; 1 μM; GF
Description: as §1

kinases in BCWM.1 cells [5] = molecular target: kinases in BCWM.1 cells (Homo sapiens, UniProt O00506); details: YSK1; Lys1; 1 μM, 90 min; GF
Description: as §1

kinases in BCWM.1 cells [6] = molecular target: kinases in BCWM.1 cells (Homo sapiens, UniProt Q96L34); details: MARK4; Lys2; 1 μM; GF
Description: as §1

kinases in BCWM.1 cells [7] = molecular target: kinases in BCWM.1 cells (Homo sapiens, UniProt P23458); details: 1 μM, GF
Description: as §1

kinases in BCWM.1 cells [8] = molecular target: kinases in BCWM.1 cells (Homo sapiens, UniProt Q5S007); details: LRRK2; Lys2; 1 μM; GF
Description: as §1

kinases in BCWM.1 cells [9] = molecular target: kinases in BCWM.1 cells (Homo sapiens, UniProt P07332); details: FES; Lys1; 1 μM; GF
Description: as §1

kinases in BCWM.1 cells [10] = molecular target: kinases in BCWM.1 cells (Homo sapiens, UniProt O94804); details: LOK; Lys2; 1 μM; GF
Description: as §1

kinases in BCWM.1 cells [11] = molecular target: kinases in BCWM.1 cells (Homo sapiens, UniProt P31749); details: AKT1; ATP Loop; 1 μM; GF
Description: as §1

kinases in BCWM.1 cells [12] = molecular target: kinases in BCWM.1 cells (Homo sapiens, UniProt Q13164); details: Erk5; Lys2; 1 μM; GF
Description: as §1

kinases in BCWM.1 cells [13] = molecular target: kinases in BCWM.1 cells (Homo sapiens, UniProt O15111); details: IKKa; Lys2; 1 μM; GF
Description: as §1

kinases in BCWM.1 cells [14] = molecular target: kinases in BCWM.1 cells (Homo sapiens, UniProt P41240); details: CSK; Activation Loop; 1 μM; GF
Description: as §1

kinases in BCWM.1 cells [15] = molecular target: kinases in BCWM.1 cells (Homo sapiens, UniProt Q99759); details: MAP3K3; Lys1; 1 μM; GF
Description: as §1

kinases in BCWM.1 cells [16] = molecular target: kinases in BCWM.1 cells (Homo sapiens, UniProt P06239); details: LCK; Activation Loop; 1 μM; GF
Description: as §1

kinases in BCWM.1 cells [17] = molecular target: kinases in BCWM.1 cells (Homo sapiens, UniProt Q8IU85); details: CaMKld; Lys1; 1 μM; GF
Description: as §1

kinases in BCWM.1 cells [18] = molecular target: kinases in BCWM.1 cells (Homo sapiens, UniProt P17612); details: PKACa; Lys2; 1 μM, 90 min; GF
Description: as §1

kinases in BCWM.1 cells [19] = molecular target: kinases in BCWM.1 cells (Homo sapiens, UniProt Q8TCG2); details: PI4K2B; ATP; 1 μM, 90 min; GF
Description: as §1

kinases in BCWM.1 cells [20] = molecular target: kinases in BCWM.1 cells (Homo sapiens, UniProt Q9C0K7); details: STLK6; Lys1; 1 μM, 90 min; GF
Description: as §1

kinases in BCWM.1 cells [21] = molecular target: kinases in BCWM.1 cells (Homo sapiens, UniProt Q14680); details: MELK; Lys2; 1 μM; GF
Description: as §1

kinases in BCWM.1 cells [22] = molecular target: kinases in BCWM.1 cells (Homo sapiens, UniProt Q13163); details: MAP2K5; Lys2; 1 μM; GF
Description: as §1

kinases in BCWM.1 cells [23] = molecular target: kinases in BCWM.1 cells (Homo sapiens, UniProt P49761); details: CLK3; ATP Loop; 1 μM; GF
Description: as §1

kinases in BCWM.1 cells [24] = molecular target: kinases in BCWM.1 cells (Homo sapiens, UniProt Q13535); details: ATR; ATP; 1 μM; GF
Description: as §1

kinases in BCWM.1 cells [25] = molecular target: kinases in BCWM.1 cells (Homo sapiens, UniProt P23743); details: DGKA; ATP; 1 μM; GF
Description: as §1

kinases in BCWM.1 cells [26] = molecular target: kinases in BCWM.1 cells (Homo sapiens, UniProt P54762); details: EphB1; Activation Loop; 1 μM; GF
Description: as §1

kinases in BCWM.1 cells [27] = molecular target: kinases in BCWM.1 cells (Homo sapiens, UniProt Q9Y6E0); details: MST3; Lys2; 1 μM; GF
Description: as §1

kinases in BCWM.1 cells [28] = molecular target: kinases in BCWM.1 cells (Homo sapiens, UniProt P50613); details: CDK7; Lys2; 1 μM; GF
Description: as §1

kinases in BCWM.1 cells [29] = molecular target: kinases in BCWM.1 cells (Homo sapiens, UniProt O95382); details: MAP3K6; Lys2; 1 μM; GF
Description: as §1

kinases in BCWM.1 cells [30] = molecular target: kinases in BCWM.1 cells (Homo sapiens, UniProt P80192); details: MLK1; Lys2; 1 μM; GF
Description: as §1

kinases in BCWM.1 cells (Homo sapiens, UniProt P54762), sequence (P54762 18-984 limits assumed): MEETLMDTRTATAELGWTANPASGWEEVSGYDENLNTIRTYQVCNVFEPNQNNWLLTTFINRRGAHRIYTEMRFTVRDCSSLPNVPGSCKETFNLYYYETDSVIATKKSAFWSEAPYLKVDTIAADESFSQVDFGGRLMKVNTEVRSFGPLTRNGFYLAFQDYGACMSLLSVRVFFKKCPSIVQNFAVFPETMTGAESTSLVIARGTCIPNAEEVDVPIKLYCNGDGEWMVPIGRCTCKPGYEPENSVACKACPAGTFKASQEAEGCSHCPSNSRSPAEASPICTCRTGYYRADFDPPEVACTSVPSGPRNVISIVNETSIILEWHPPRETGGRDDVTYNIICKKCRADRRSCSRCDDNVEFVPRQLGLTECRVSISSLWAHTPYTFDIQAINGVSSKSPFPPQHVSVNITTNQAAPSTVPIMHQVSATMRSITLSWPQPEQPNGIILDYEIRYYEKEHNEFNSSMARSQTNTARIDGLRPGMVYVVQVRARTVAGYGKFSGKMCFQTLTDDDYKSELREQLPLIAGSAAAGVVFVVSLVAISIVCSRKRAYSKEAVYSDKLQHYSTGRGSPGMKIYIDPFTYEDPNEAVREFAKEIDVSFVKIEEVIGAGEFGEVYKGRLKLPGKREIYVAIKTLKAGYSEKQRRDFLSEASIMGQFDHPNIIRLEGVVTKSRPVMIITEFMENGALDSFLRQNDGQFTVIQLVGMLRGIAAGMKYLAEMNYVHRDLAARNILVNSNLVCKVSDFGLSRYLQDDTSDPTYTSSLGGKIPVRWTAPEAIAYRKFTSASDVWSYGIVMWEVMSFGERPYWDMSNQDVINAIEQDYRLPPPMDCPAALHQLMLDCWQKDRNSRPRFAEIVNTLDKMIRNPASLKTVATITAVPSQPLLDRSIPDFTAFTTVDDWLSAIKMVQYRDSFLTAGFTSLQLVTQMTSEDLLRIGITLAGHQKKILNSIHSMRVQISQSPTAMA
kinases in BCWM.1 cells (Homo sapiens, UniProt P06239), sequence (P06239 2-509 limits assumed): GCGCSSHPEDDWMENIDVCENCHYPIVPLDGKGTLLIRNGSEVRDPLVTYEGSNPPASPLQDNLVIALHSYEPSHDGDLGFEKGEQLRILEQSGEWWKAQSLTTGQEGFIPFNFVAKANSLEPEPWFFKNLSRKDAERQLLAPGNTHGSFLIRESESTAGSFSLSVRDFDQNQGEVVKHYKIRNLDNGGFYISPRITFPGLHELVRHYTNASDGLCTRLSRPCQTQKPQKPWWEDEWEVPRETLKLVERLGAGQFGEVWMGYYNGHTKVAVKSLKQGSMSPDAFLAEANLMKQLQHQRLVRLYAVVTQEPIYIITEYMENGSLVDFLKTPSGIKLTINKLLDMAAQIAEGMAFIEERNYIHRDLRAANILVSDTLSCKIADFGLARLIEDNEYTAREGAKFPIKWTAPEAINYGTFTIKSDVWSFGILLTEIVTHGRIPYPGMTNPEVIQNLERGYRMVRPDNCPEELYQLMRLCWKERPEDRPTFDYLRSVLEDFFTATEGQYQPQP
kinases in BCWM.1 cells (Homo sapiens, UniProt P41240), sequence (P41240 2-450 limits assumed): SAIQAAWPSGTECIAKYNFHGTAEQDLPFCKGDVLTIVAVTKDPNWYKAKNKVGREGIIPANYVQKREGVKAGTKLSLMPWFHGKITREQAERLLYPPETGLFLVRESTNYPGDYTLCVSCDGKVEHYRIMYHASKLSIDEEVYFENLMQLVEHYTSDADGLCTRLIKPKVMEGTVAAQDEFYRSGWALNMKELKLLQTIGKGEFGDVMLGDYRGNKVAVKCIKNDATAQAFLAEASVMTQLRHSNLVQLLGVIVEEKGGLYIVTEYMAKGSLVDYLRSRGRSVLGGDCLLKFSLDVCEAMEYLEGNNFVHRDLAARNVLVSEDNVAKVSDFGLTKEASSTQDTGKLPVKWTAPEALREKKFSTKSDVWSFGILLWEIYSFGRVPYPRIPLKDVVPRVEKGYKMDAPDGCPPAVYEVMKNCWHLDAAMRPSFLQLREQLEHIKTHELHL
kinases in BCWM.1 cells (Homo sapiens, UniProt Q13164), sequence (Q13164 2-816 limits assumed): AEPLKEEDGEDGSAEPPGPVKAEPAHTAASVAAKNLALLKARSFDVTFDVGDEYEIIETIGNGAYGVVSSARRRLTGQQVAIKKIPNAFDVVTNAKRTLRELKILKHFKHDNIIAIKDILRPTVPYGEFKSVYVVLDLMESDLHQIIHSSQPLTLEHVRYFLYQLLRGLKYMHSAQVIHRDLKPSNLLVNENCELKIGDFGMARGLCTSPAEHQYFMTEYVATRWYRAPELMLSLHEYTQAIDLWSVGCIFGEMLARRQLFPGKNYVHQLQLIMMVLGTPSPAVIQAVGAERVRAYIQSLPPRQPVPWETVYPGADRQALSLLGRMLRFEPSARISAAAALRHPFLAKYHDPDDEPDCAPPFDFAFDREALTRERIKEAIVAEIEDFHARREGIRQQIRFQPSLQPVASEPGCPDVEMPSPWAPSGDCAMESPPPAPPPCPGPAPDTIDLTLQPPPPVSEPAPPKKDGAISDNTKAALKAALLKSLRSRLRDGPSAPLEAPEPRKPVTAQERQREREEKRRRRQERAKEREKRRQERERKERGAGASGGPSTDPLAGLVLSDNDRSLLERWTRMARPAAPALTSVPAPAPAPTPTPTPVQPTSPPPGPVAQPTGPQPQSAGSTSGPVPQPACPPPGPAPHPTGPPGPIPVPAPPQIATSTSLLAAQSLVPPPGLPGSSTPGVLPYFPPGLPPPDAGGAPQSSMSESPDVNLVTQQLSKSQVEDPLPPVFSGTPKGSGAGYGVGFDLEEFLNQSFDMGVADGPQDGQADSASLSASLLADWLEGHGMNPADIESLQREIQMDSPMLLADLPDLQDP
kinases in BCWM.1 cells (Homo sapiens, UniProt P50613), sequence (P50613 2-346 limits assumed): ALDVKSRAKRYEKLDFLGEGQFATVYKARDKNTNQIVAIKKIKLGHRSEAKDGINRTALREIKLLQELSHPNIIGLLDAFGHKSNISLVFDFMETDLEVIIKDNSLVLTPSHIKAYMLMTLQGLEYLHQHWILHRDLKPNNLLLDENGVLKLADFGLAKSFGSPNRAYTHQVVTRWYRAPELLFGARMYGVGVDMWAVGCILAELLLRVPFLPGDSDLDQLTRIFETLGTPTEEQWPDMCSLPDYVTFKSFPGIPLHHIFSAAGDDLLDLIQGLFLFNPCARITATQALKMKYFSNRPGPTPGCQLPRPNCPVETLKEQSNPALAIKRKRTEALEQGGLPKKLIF
kinases in BCWM.1 cells (Homo sapiens, UniProt P49840), sequence (P49840 2-483 limits assumed): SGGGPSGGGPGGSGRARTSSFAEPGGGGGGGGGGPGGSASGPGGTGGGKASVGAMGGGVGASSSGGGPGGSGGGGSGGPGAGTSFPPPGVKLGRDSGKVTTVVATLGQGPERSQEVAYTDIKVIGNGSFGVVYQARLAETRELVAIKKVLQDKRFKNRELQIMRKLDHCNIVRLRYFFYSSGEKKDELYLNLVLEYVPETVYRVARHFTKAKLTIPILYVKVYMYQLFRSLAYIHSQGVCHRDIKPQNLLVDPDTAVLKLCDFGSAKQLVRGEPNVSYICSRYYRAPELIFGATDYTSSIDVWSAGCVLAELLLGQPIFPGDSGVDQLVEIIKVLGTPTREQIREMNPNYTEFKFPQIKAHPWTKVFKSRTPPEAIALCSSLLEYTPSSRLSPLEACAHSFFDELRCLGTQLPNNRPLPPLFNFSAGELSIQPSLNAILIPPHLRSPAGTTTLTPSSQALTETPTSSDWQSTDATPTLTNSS

## CCC(=O)N1CC[C@H](Nc2nccc(Nc3ncc(C(=O)Nc4c(C)cccc4C)s3)n2)C1 [Example I-9]
Kinases in BCWM.1 cells [1]
  % change of MS signal compared to control sample: −16.2% and −8.3%
Kinases in BCWM.1 cells [2]
  % change of MS signal compared to control sample: −6.4% and −4.8%
Kinases in BCWM.1 cells [3]
  % change of MS signal compared to control sample: −21.2% and −12.5%
Kinases in BCWM.1 cells [4]
  % change of MS signal compared to control sample: 2.3% and 1.9%
Kinases in BCWM.1 cells [5]
  % change of MS signal compared to control sample: −20.8%
Kinases in BCWM.1 cells [6]
  % change of MS signal compared to control sample: −12.2% and −10.2%
Kinases in BCWM.1 cells [7]; JAK1, Protein Kinase Domain
  % change of MS signal compared to control sample: −11.5% and −6.7%
Kinases in BCWM.1 cells [7]; JAK1 domain2, Activation Loop
  % change of MS signal compared to control sample: −15.6% and −13.9%
Kinases in BCWM.1 cells [7]; JAK1 domain2, Lys1
  % change of MS signal compared to control sample: −18.1% and −14.4%
Kinases in BCWM.1 cells [8]
  % change of MS signal compared to control sample: −26.4% and −21.7%
Kinases in BCWM.1 cells [9]
  % change of MS signal compared to control sample: −11.2% and −3.9%
Kinases in BCWM.1 cells [10]
  % change of MS signal compared to control sample: 26.2% and 15.2%
Kinases in BCWM.1 cells [11]
  % change of MS signal compared to control sample: −25.1% and −16.8%
Kinases in BCWM.1 cells [12]
  % change of MS signal compared to control sample: −1.8% and 1.1%
Kinases in BCWM.1 cells [13]
  % change of MS signal compared to control sample: −3.3% and −0.4%
Kinases in BCWM.1 cells [14]
  % change of MS signal compared to control sample: −6% and 1.5%
Kinases in BCWM.1 cells [15]
  % change of MS signal compared to control sample: −13.7% and −19.7%
Kinases in BCWM.1 cells [16]
  % change of MS signal compared to control sample: 61.6% and 82.8%
Kinases in BCWM.1 cells [17]
  % change of MS signal compared to control sample: −7.5% and −4.6%
Kinases in BCWM.1 cells [18]
  % change of MS signal compared to control sample: −8.4%
Kinases in BCWM.1 cells [19]
  % change of MS signal compared to control sample: 6.5%
Kinases in BCWM.1 cells [20]
  % change of MS signal compared to control sample: 4.8%
Kinases in BCWM.1 cells [21]
  % change of MS signal compared to control sample: −9.6% and −9.5%
Kinases in BCWM.1 cells [22]
  % change of MS signal compared to control sample: 16.8% and 16.3%
Kinases in BCWM.1 cells [23]
  % change of MS signal compared to control sample: −19% and −10.3%
Kinases in BCWM.1 cells [24]
  % change of MS signal compared to control sample: 28.1% and 16.5%
Kinases in BCWM.1 cells [25]
  % change of MS signal compared to control sample: −1.5% and −6.6%
Kinases in BCWM.1 cells [26]
  % change of MS signal compared to control sample: 53.3% and 78.9%
Kinases in BCWM.1 cells [27]
  % change of MS signal compared to control sample: −1.9% and −1.4%
Kinases in BCWM.1 cells [28]
  % change of MS signal compared to control sample: 1.3% and 5.1%
Kinases in BCWM.1 cells [29]
  % change of MS signal compared to control sample: −13.4% and −5%
Kinases in BCWM.1 cells [30]
  % change of MS signal compared to control sample: 1% and 9%
